This is an account of results in article PMC9036659, “Boron-containing capsaicinoids” (RSC Advances, 2021).

Values after ≈ are worked out from the molar mass of the structure shown. Read-outs that look alike come from different tables or passages of the source. Marks after values point to notes of the source that are not given here.

Holding throughout (type): cell-based
Data set [1] relates to vancomycin-resistant Enterococcus faecium VRE 379. Nature of the data set: Antimicrobial assay, VRE (PrestoBlue fluorescence). On the procedure:
(§1) The microorganisms (methicillin-resistant S. aureus MRSA 310, vancomycin-resistant E. faecium VRE 379, S. warneri (ATCC 17917), P. vulgaris (ATCC 12454), P. aeruginosa (ATCC 14210), and C. albicans (ATCC 14035)) were grown overnight on agar media. The following day the cultures were transferred into 0.9% saline water into a sterile glass tube. Using the McFarland reader, the turbidity was determined and further diluted into their respective media. The pure compounds were tested at seven different concentrations ranging from 2 to 128 μg mL^−1 in triplicate. Samples were plated into 96 well plates (10 μL in 20% DMSO) and then diluted pathogen (90 μL) was pipetted into the pre-prepared sample plates yielding 5 × 10^5 cfu mL^−1 with a final volume of 100 μL. Antibiotics that are active against specific pathogens were used as positive controls. The plates were incubated into a 37 °C incubator for 22 h. Growth of S. warneri. P. vulgaris, P. aeruginosa and C. albicans were measured by reading optical density (OD600), or in the case of slow growing microorganisms (MRSA and VRE), PrestoBlue was used to assess metabolic activity by measuring fluorescence (535–560)/(590–615) (excitation/emission) using a Thermo Scientific Varioskan Flash plate reader at time zero and then again after incubation of the plates for 22 h at 37 °C. After subtracting the time zero OD600 from the final reading, the percentages of microorganism survival relative to vehicle control wells were calculated. […]
(§2) Antimicrobial Assay Data Growth of S. warneri. P. vulgaris, P. aeruginosa and C. albicans were measured by reading optical density (OD600), or in the case of slow growing microorganisms (MRSA and VRE), PrestoBlue was used to assess metabolic activity by measuring fluorescence (535-560)⁄(590-615) (excitation/emission) using a Thermo Scientific Varioskan Flash plate reader at time zero and then again after incubation of the plates for 22 h at 37 °C. After subtracting the time zero OD600 from the final reading, the percentages of microorganism survival relative to vehicle control wells were calculated. […]

Data set [2] relates to Staphylococcus warneri (ATCC 17917). Nature of the data set: Antimicrobial assay, S. warneri (OD600). The note with it: for IC50 / MIC90: Staphylococcus warneri; for IC50: read-out: S. warneri IC50; for MIC90: read-out: S. warneri MIC90. On the procedure: as §1, §2
Data set [3] relates to methicillin-resistant Staphylococcus aureus MRSA 310. Nature of the data set: Antimicrobial assay, MRSA (PrestoBlue fluorescence). To be noted: for MRSA MIC90 / IC50 / MIC90: 22 h; for IC50 / MIC90: Staphylococcus aureus, MRSA; for IC50: read-out: MRSA IC50; for MIC90: read-out: MRSA MIC90. How it is done:
as §1, §2

The subject of data set [4] is human breast adenocarcinoma cells (ATCC HTB-26 MDA-MB 231). Put plainly: Cytotoxicity assay (Alamar blue), HTB-26. To be noted: for IC50: Homo sapiens, HTB26, 72 h incubation, average ± SD, Inactive = inhibition above 300 μM, read-out: IC50 HTB (cancer cell line). On the procedure: (§3) The cells (human foreskin BJ fibroblast cells (ATCC CRL-2522), green monkey kidney cells Vero (ATCC CCL-81), human breast adenocarcinoma cells (ATCC HTB-26 MDA-MB 231), human breast adenocarcinoma cells (MCF7 ATCC HTB-22), and human colorectal carcinoma cells (HCT116 ATCC CCL-247)) were grown to 80% confluency, the cells were counted, diluted, and plated into treated 96-well cell culture plates. The BJ fibroblast and Vero cells were plated at a cell density of 10 000 cells per well and the HTB26, HCT116 and MCF7 cells were plated at cell density of 5000 cells per well in 90 μL of respective growth medium (without the addition of antibiotics) and incubated for 24 h to allow cells to adhere to the plates before treatment. Pure compounds were tested in triplicate in serial dilutions of seven concentrations ranging from 2 to 128 μg mL^−1 per well (final well volume of 100 μL, 1% DMSO per well). Each of the cell lines were incubated at 37 °C in a humidified atmosphere of 5% CO2; the BJ fibroblast and Vero cells for 24 h and the HTB-26, HCT116 and MCF7 cells for 72 h. Each plate contained four uninoculated positive controls, four untreated negative controls, and one column containing a concentration range for doxorubicin. Alamar blue was added, 24 h after the treatment, and fluorescence was monitored using a Cytation Gen 5 plate reader using 560 nm Ex/590 Em both at time zero and 4 h after Alamar blue addition. The inferred percentage of cell viability relative to vehicle control wells were calculated after subtracting the time zero emission 590 nm measurement from the final reading and the IC50 was determined. […]
(§4) Cytotoxicity Assay Data Alamar blue was added, 24 h after the treatment, and fluorescence was monitored using a Cytation Gen 5 plate reader using 560 nm Ex/590 Em both at time zero and 4 h after Alamar blue addition. The inferred percentage of cell viability relative to vehicle control wells were calculated after subtracting the time zero emission 590 nm measurement from the final reading and the IC50 was determined.
(In general: The colour change of resazurin is a common sign of viable cells or microbes.)

Data set [5] relates to human breast adenocarcinoma cells (MCF7 ATCC HTB-22). Put plainly: Cytotoxicity assay (Alamar blue), MCF7. The note with it: for IC50: Homo sapiens, MCF7, 72 h incubation, average ± SD, Inactive = inhibition above 300 μM, read-out: IC50 MCF7 (cancer cell line). On the procedure:
as §3, §4

The subject of data set [6] is green monkey kidney cells Vero (ATCC CCL-81). Nature of the data set: Cytotoxicity assay (Alamar blue), Vero. The note with it: 24 h incubation, average ± SD, Inactive = inhibition above 300 μM. How it is done: as §3, §4
Data set [7] concerns human foreskin BJ fibroblast cells (ATCC CRL-2522). Put plainly: Cytotoxicity assay (Alamar blue), BJ. To be noted: 24 h incubation, average ± SD, Inactive = inhibition above 300 μM. How it is done:
as §3, §4

Data set [8] has as its system human colorectal carcinoma cells (HCT116 ATCC CCL-247). Put plainly: Cytotoxicity assay (Alamar blue), HCT116. The note with it: for IC50: Homo sapiens, HCT-116, 72 h incubation, average ± SD, Inactive = inhibition above 300 μM, read-out: IC50 HCT (cancer cell line). On the procedure: as §3, §4
Setting [9] is: 22 h, 37 °C, Inactive = inhibition above 300 μM.
Where [10] appears, read: 22 h, 37 °C, average ± SD, Inactive = inhibition above 300 μM.
Setting [11] is: 37 °C, concentration for 90% growth inhibition, Inactive = inhibition above 300 μM.
Setting [12] is: ATCC17917, 22 h, 37 °C, Inactive = inhibition above 300 μM.
The mark [13] stands for this setting: ATCC17917, 22 h, 37 °C, average ± SD, Inactive = inhibition above 300 μM.
Where [14] appears, read: 37 °C, average ± SD, Inactive = inhibition above 300 μM.

Usually MIC90 stands for an inhibitory concentration at the 90% level, which refers to growth in some studies and to a panel of isolates in others. The term IC50 denotes the midpoint of a concentration-inhibition curve. `CO[C@H]1/C=C/O[C@@]2(C)Oc3c(C)c(O)c4c(O)c(c(/C=N/N5CCN(C)CC5)c(O)c4c3C2=O)NC(=O)/C(C)=C\C=C\[C@H](C)[C@H](O)[C@@H](C)[C@@H](O)[C@@H](C)[C@H](OC(C)=O)[C@@H]1C` [Rifampicin, reference compound]: the MIC90 in data set [1] (setting [9]) is 2.4 µM (≈ 1.98 µg/mL). Half-maximal inhibition in data set [1] (setting [10]) (IC50) required 1.2 ± 0.1 µM.

Consider `CN[C@H](CC(C)C)C(=O)N[C@H]1C(=O)N[C@@H](CC(N)=O)C(=O)N[C@H]2C(=O)N[C@H]3C(=O)N[C@H](C(=O)N[C@H](C(=O)O)c4cc(O)cc(O)c4-c4cc3ccc4O)[C@H](O)c3ccc(c(Cl)c3)Oc3cc2cc(c3O[C@@H]2O[C@H](CO)[C@@H](O)[C@H](O)[C@H]2O[C@H]2C[C@](C)(N)[C@H](O)[C@H](C)O2)Oc2ccc(cc2Cl)[C@H]1O` [Vancomycin, reference compound], for which, in data set [2] (ATCC17917, 22 h), the concentration for half-maximal inhibition (IC50) came to 0.3 ± 0.1 µM and the MIC90 was found to be 0.3 µM (≈ 0.435 µg/mL). The “MRSA MIC90” value in data set [3] (setting [11]) is recorded as 1.4^a μM. In data set [3], the IC50 is 0.5 ± 0.1 µM and the MIC90 stood at 1.4 µM (≈ 2.03 µg/mL).

On to `CCCCCC(=O)N(Cc1ccc(OC)c(OC)c1)c1cccc(B2OC(C)(C)C(C)(C)O2)c1` [Compound 25, N-(3,4-dimethoxyphenylmethyl)-N-[3-(4,4,5,5-tetramethyl-1,3,2-dioxaborolan-2-yl)phenyl]-hexanamide], for which, in data set [4], the “cytotoxic activity against HTB-26 MDA-MB 231 (in words)” value is “selective but low to moderate activity”. The half-inhibitory concentration (IC50) in data set [4] is 76.1 ± 3.4 µM; in data set [1] (setting [10]), 91.6 ± 6.8 µM; in data set [5] it was 118 ± 19.5 µM; in data set [2] (setting [13]) it was 78.3 ± 39.8 µM; in data set [3] (setting [14]), 70.6 ± 6.6 µM; in data set [8], 137 ± 12 µM. Also, the “antimicrobial activity against VRE (in words)” value in data set [1] is “moderate activity”. The MIC90 in data set [1] (setting [9]) was found to be 274 µM (≈ 128 µg/mL); in data set [2] (setting [12]) it was 137 µM (≈ 64 µg/mL); in data set [3] (setting [11]), 137 µM (≈ 64 µg/mL). Moreover, the “cytotoxic activity against MCF7 (in words)” value in data set [5] is listed as “selective but low to moderate activity”. Besides, the “antimicrobial activity against S. warneri (in words)” value in data set [2] is “moderate activity”. Also, the “antimicrobial activity against MRSA (in words)” value in data set [3] is recorded as “moderate activity”. Besides, the “IC50 Vero (normal cell line)” value in data set [6] is “Inactive”. For the same molecule, the “IC50 BJ (normal cell line)” value in data set [7] is recorded as “Inactive”. Further, the “cytotoxic activity against HCT116 (in words)” value in data set [8] was “selective but low to moderate activity”.

Take `COc1ccc(CN(C(=O)CCCCB2OC(C)(C)C(C)(C)O2)c2ccccc2)cc1OC` [Compound 31, N-(3,4-dimethoxybenzyl)-N-phenyl-5-(4,4,5,5-tetramethyl-1,3,2-dioxaborolan-2-yl)pentanamide]: the “cytotoxic activity against HTB-26 MDA-MB 231 (in words)” value in data set [4] is “selective but low to moderate activity”. Also, the IC50 in data set [4] was 58 ± 3.5 µM; in data set [5], 108 ± 30.9 µM; in data set [2] (setting [13]), 135 ± 15.4 µM; in data set [3] (setting [14]) it was 121 ± 2 µM; in data set [8], 126 ± 16.5 µM. Besides, the “VRE MIC90” value in data set [1] (setting [9]) is “Inactive”. The “VRE IC50” value in data set [1] (setting [10]) was “Inactive”. The “cytotoxic activity against MCF7 (in words)” value in data set [5] is given as “selective but low to moderate activity”. Also, the “antimicrobial activity against S. warneri (in words)” value in data set [2] is reported as “low activity”. The MIC90 in data set [2] (setting [12]) was determined as 282 µM (≈ 128 µg/mL). Besides, in data set [3], the “antimicrobial activity against MRSA (in words)” value is on record as “low activity”. For the same molecule, the “MRSA MIC90” value in data set [3] (setting [11]) is “Inactive”. Also, the “IC50 Vero (normal cell line)” value in data set [6] is listed as “Inactive”. In addition, the “IC50 BJ (normal cell line)” value in data set [7] is given as “Inactive”. Further, in data set [8], the “cytotoxic activity against HCT116 (in words)” value is “selective but low to moderate activity”.

For the molecule `COc1cccc2c1C(=O)c1c(O)c3c(c(O)c1C2=O)C[C@@](O)(C(=O)CO)C[C@@H]3O[C@H]1C[C@H](N)[C@H](O)[C@H](C)O1` [Doxorubicin, reference compound], the IC50 was 0.4 ± 0.2 µM in data set [4]; 0.2 ± 0.2 µM in data set [5]; above 14.7 µM in data set [6] (Chlorocebus sabaeus, Vero, read-out: IC50 Vero (normal cell line)); above 14.7 µM in data set [7] (Homo sapiens, Fibroblast, read-out: IC50 BJ (normal cell line)); below 0.00012 µM in data set [8].
